# Test results published in ChEMBL document CHEMBL2417473, “The importance of hydrogen bonding and aromatic stacking to the affinity and efficacy of cannabinoid receptor CB2 antagonist, 5-(4-chloro-3-methylphenyl)-1-[(4-methylphenyl)methyl]-N-[(1S,2S,4R)-1,3,3-trimethylbicyclo[2.2.1]hept-2-yl]-1H-pyrazole-3-carboxamide (SR144528)” (J Med Chem, 2013).
# Molecular target: Cannabinoid receptor 2 (Homo sapiens, UniProt P34972)
# Test: Displacement of [3H]CP-55,940 from human CB2 receptor after 1 hr by competitive binding assay
# Chain of Cannabinoid receptor 2 (P34972 whole entry): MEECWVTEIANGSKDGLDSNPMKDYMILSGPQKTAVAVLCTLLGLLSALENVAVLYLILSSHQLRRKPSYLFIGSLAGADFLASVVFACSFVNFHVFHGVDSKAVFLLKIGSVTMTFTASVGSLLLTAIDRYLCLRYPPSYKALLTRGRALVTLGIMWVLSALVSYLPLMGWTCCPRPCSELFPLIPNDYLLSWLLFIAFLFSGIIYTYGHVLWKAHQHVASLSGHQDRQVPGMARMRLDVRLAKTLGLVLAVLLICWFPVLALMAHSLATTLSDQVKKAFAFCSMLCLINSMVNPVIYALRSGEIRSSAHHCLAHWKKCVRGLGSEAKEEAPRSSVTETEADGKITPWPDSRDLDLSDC
row,Compound,Ki
1,Cc1ccc(Cn2cc(/C=C/[C@@H]3C(C)(C)[C@@H]4CC[C@@]3(C)C4)cc2-c2ccc(Cl)c(C)c2)cc1,1220 nM
2,Cc1ccc(Cn2nc(C(=O)N[C@@H]3C[C@@H]4CC[C@@]3(C)C4(C)C)cc2-c2ccc(Cl)c(C)c2)cc1,29.1 nM
3,Cc1cc(-c2cc(C(=O)N[C@@H]3C(C)(C)[C@@H]4CC[C@@]3(C)C4)nn2-c2ccccc2)ccc1Cl,94.2 nM
4,Cc1ccc(Cn2nc(/C=C/[C@@H]3C(C)(C)[C@@H]4CC[C@@]3(C)C4)cc2-c2ccc(Cl)c(C)c2)cc1 (relative stereo),527 nM
5,Cc1ccc(Cn2cc(C(=O)N[C@@H]3C(C)(C)[C@@H]4CC[C@@]3(C)C4)cc2-c2ccc(Cl)c(C)c2)cc1 (relative stereo),15.3 nM
